Measurements reported in the NIST ThermoML archive (doi:10.1021/je020191g).
Several values for one entry are separate records, joined by “and”; a condition that tells them apart may be missing. Equal values may be shown once. ± gives the expanded uncertainty stated by the source.

Legend:
[1] = 101.33 kPa, Liquid
[2] = xn = mol fraction of the nth substance listed; conditions: 101.33 kPa, Liquid

C1CCNC1 [pyrrolidine]
mass density ([1]; 298.15 K): 854.6 ± 4.2 kg/m3
mass density ([1]; 323.15 K): 833.7 ± 4.1 kg/m3

C1CCNC1 [pyrrolidine] + O
mass density ([2]; 298.15 K, x1 = 0.099): 976 ± 4.8 kg/m3
mass density ([2]; 298.15 K, x1 = 0.1): 973.9 ± 4.8 kg/m3
mass density ([2]; 298.15 K, x1 = 0.199): 956.6 ± 4.7 kg/m3
mass density ([2]; 298.15 K, x1 = 0.204): 952.8 ± 4.7 kg/m3
mass density ([2]; 298.15 K, x1 = 0.297): 934.7 ± 4.6 kg/m3
mass density ([2]; 298.15 K, x1 = 0.299): 938.8 ± 4.7 kg/m3
mass density ([2]; 298.15 K, x1 = 0.396): 925.8 ± 4.6 kg/m3
mass density ([2]; 298.15 K, x1 = 0.399): 925.4 ± 4.6 kg/m3
mass density ([2]; 298.15 K, x1 = 0.497): 912.1 ± 4.5 kg/m3
mass density ([2]; 298.15 K, x1 = 0.498): 911.5 ± 4.5 kg/m3
mass density ([2]; 298.15 K, x1 = 0.589): 901.1 ± 4.4 kg/m3
mass density ([2]; 298.15 K, x1 = 0.596): 900.2 ± 4.4 kg/m3
mass density ([2]; 298.15 K, x1 = 0.675): 893.8 ± 4.4 kg/m3
mass density ([2]; 298.15 K, x1 = 0.697): 893.4 ± 4.4 kg/m3
mass density ([2]; 298.15 K, x1 = 0.786): 879.9 ± 4.3 kg/m3
mass density ([2]; 298.15 K, x1 = 0.796): 877.1 ± 4.3 kg/m3
mass density ([2]; 298.15 K, x1 = 0.882): 865.3 ± 4.3 kg/m3
mass density ([2]; 298.15 K, x1 = 0.888): 865.6 ± 4.3 kg/m3
mass density ([2]; 298.15 K, x1 = 0.995): 852.9 ± 4.2 kg/m3 and 856.2 ± 4.2 kg/m3
mass density ([2]; 323.15 K, x1 = 0.099): 960 ± 4.7 kg/m3
mass density ([2]; 323.15 K, x1 = 0.1): 963.6 ± 4.8 kg/m3
mass density ([2]; 323.15 K, x1 = 0.199): 941.5 ± 4.6 kg/m3
mass density ([2]; 323.15 K, x1 = 0.204): 937.2 ± 4.6 kg/m3
mass density ([2]; 323.15 K, x1 = 0.297): 921.2 ± 4.6 kg/m3
mass density ([2]; 323.15 K, x1 = 0.299): 924.5 ± 4.6 kg/m3
mass density ([2]; 323.15 K, x1 = 0.396): 904 ± 4.5 kg/m3
mass density ([2]; 323.15 K, x1 = 0.399): 907.4 ± 4.5 kg/m3
mass density ([2]; 323.15 K, x1 = 0.497): 891.1 ± 4.4 kg/m3
mass density ([2]; 323.15 K, x1 = 0.498): 891.2 ± 4.4 kg/m3
mass density ([2]; 323.15 K, x1 = 0.589): 883.5 ± 4.4 kg/m3
mass density ([2]; 323.15 K, x1 = 0.596): 879.9 ± 4.3 kg/m3
mass density ([2]; 323.15 K, x1 = 0.675): 871.3 ± 4.3 kg/m3
mass density ([2]; 323.15 K, x1 = 0.697): 868.5 ± 4.3 kg/m3
mass density ([2]; 323.15 K, x1 = 0.786): 858.3 ± 4.2 kg/m3
mass density ([2]; 323.15 K, x1 = 0.796): 858.6 ± 4.2 kg/m3
mass density ([2]; 323.15 K, x1 = 0.882): 843.5 ± 4.2 kg/m3
mass density ([2]; 323.15 K, x1 = 0.888): 845.6 ± 4.2 kg/m3
mass density ([2]; 323.15 K, x1 = 0.995): 834.6 ± 4.1 kg/m3 and 832.8 ± 4.1 kg/m3

C1COCCN1 [tetrahydro-1,4-oxazine]
mass density ([1]; 298.15 K): 996 ± 4.9 kg/m3
mass density ([1]; 333.15 K): 965.9 ± 4.7 kg/m3

C1COCCN1 [tetrahydro-1,4-oxazine] + O
mass density ([2]; 298.15 K, x1 = 0.1): 1023.2 ± 5 kg/m3 and 1010.6 ± 5 kg/m3
mass density ([2]; 298.15 K, x1 = 0.199): 1031.5 ± 5.1 kg/m3 and 1025.9 ± 5 kg/m3
mass density ([2]; 298.15 K, x1 = 0.298): 1030.9 ± 5.1 kg/m3
mass density ([2]; 298.15 K, x1 = 0.299): 1029.6 ± 5.1 kg/m3
mass density ([2]; 298.15 K, x1 = 0.398): 1029.8 ± 5.1 kg/m3 and 1028.4 ± 5 kg/m3
mass density ([2]; 298.15 K, x1 = 0.497): 1023.4 ± 5.1 kg/m3
mass density ([2]; 298.15 K, x1 = 0.498): 1025.5 ± 5.1 kg/m3
mass density ([2]; 298.15 K, x1 = 0.591): 1016.8 ± 5 kg/m3
mass density ([2]; 298.15 K, x1 = 0.597): 1019.4 ± 5 kg/m3
mass density ([2]; 298.15 K, x1 = 0.692): 1013.5 ± 5 kg/m3
mass density ([2]; 298.15 K, x1 = 0.696): 1013.5 ± 5 kg/m3
mass density ([2]; 298.15 K, x1 = 0.793): 1005.7 ± 4.9 kg/m3
mass density ([2]; 298.15 K, x1 = 0.796): 1003.9 ± 4.9 kg/m3
mass density ([2]; 298.15 K, x1 = 0.895): 997.4 ± 4.9 kg/m3
mass density ([2]; 298.15 K, x1 = 0.897): 999.2 ± 4.9 kg/m3
mass density ([2]; 298.15 K, x1 = 0.995): 996 ± 4.9 kg/m3 and 994.9 ± 4.9 kg/m3
mass density ([2]; 333.15 K, x1 = 0.1): 1001.2 ± 4.9 kg/m3 and 1005.4 ± 4.9 kg/m3
mass density ([2]; 333.15 K, x1 = 0.199): 1010.5 ± 5 kg/m3 and 1006.2 ± 4.9 kg/m3
mass density ([2]; 333.15 K, x1 = 0.298): 1010.6 ± 5.1 kg/m3
mass density ([2]; 333.15 K, x1 = 0.299): 1006.8 ± 5.1 kg/m3
mass density ([2]; 333.15 K, x1 = 0.398): 1006.1 ± 4.9 kg/m3 and 1005.1 ± 4.9 kg/m3
mass density ([2]; 333.15 K, x1 = 0.497): 1000.6 ± 5.3 kg/m3
mass density ([2]; 333.15 K, x1 = 0.498): 996.6 ± 5.3 kg/m3
mass density ([2]; 333.15 K, x1 = 0.591): 990.3 ± 4.9 kg/m3
mass density ([2]; 333.15 K, x1 = 0.597): 999 ± 4.9 kg/m3
mass density ([2]; 333.15 K, x1 = 0.692): 982.6 ± 4.9 kg/m3
mass density ([2]; 333.15 K, x1 = 0.696): 989.6 ± 4.9 kg/m3
mass density ([2]; 333.15 K, x1 = 0.793): 976 ± 4.8 kg/m3
mass density ([2]; 333.15 K, x1 = 0.796): 976.4 ± 4.8 kg/m3
mass density ([2]; 333.15 K, x1 = 0.895): 968.9 ± 4.8 kg/m3
mass density ([2]; 333.15 K, x1 = 0.897): 969.3 ± 4.8 kg/m3
mass density ([2]; 333.15 K, x1 = 0.995): 967.3 ± 4.7 kg/m3 and 964.4 ± 4.7 kg/m3

O [water]
mass density ([1]; 323.15 K): 988.04 ± 4.9 kg/m3
mass density ([1]; 333.15 K): 983.2 ± 4.8 kg/m3

O [water] + C1CCNC1
mass density ([2]; 323.15 K, x2 = 0): 988.04 ± 4.9 kg/m3

O [water] + C1COCCN1
mass density ([2]; 333.15 K, x2 = 0): 983.2 ± 4.8 kg/m3
